Consider 13 compounds from patent US10214492B2, “Heterocyclic inhibitors of MCT4” (Vettore, LLC, priority 2016, dated 2019).

Some results are limits rather than exact numbers.

Data set [1] is described as follows: Metabolic stability in rat liver microsomes (in vitro t1/2). The conditions noted are these: for half-life at 2 µM: read-out: Rat microsome t1/2, min; for Rat microsome % 60 min: rat liver microsomes. In kind it is in vitro ADME. The protocol: (§1) The following are assays that may be used to evaluate the metabolic stability of compounds of Formula (I) in human, rat, or mouse microsomes. The assays follow a common procedure recited below. 1. […] Two separated experiments were performed as follows. a) With NADPH: 10 μL of 20 mg/mL liver microsomes and 40 μL of 10 mM NADPH were added to the incubations. […] The final concentration of microsomes was 0.5 mg/mL. 3. The reaction was started with the addition of 4 μL of 200 μM control compound or test compound solutions. Verapamil was used as positive control in this study. The final concentration of test compound or control compound was 2 μM. 4. Aliquots of 50 μL were taken from the reaction solution at 0, 15, 30, 45 and 60 min. […] Samples were centrifuged at 3,220 g for 40 minutes. A 90 μL aliquot of the supernatant was mixed with 90 μL of ultra-pure H2O and then used for LC-MS/MS analysis. 5. Data analysis. All calculations were carried out using Microsoft Excel. Peak areas were determined from extracted ion chromatograms. The slope value, k, was determined by linear regression of the natural logarithm of the remaining percentage of the parent drug vs. incubation time curve. The in vitro half-life (in vitro t1/2) was determined from the slope value: in vitro t1/2=−(0.693)/k.

For the next data set, the target named is MCT1 (Homo sapiens (Human), UniProt P53985). Put plainly: Assay 4: MCT1-mediated lactate transport in BT20 breast cancer cells. The conditions noted are these: Table 27. In kind it is cell-based. The method, boiled down: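 Transport started with 10 mM L-lactate on BCECF-loaded BT20 cells in Tyrode's Solution, pH 7.4. Dye loading: BCECF-AM ester (30 mM DMSO stock), 5 min at 37° C, then one wash.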
Chain of MCT1 (P53985 whole entry): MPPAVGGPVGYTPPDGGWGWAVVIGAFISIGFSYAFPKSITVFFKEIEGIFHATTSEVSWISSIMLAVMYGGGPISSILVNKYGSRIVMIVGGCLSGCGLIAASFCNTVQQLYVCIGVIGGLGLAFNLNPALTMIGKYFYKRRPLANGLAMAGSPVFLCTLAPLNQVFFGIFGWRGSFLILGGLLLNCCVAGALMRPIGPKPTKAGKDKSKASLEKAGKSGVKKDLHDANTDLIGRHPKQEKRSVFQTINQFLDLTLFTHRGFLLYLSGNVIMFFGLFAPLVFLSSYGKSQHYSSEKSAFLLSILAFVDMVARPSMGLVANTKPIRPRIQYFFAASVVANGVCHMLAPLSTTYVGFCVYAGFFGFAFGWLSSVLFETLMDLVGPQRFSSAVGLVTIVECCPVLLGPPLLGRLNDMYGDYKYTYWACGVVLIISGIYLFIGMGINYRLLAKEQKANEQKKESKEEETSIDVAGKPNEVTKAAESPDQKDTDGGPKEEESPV
Chain of MCT1 (P35613 140-385 partner): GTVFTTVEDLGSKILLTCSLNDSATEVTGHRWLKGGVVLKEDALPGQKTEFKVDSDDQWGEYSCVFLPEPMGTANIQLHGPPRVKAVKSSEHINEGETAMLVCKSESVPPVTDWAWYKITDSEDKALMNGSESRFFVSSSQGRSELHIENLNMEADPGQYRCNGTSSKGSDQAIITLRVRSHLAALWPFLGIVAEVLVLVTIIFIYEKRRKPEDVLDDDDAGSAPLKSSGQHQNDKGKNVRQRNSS

Data set [2] is described as follows: Metabolic stability in mouse liver microsomes (in vitro t1/2). The format is in vitro ADME. The conditions noted are these: for half-life at 2 µM: mouse liver microsomes 0.5 mg/mL, 2 μM compound, read-out: Mouse microsome t1/2, min; for Mouse microsome % 60 min: mouse liver microsomes. The protocol: as §1
Data set [3] in a line: Metabolic stability in human liver microsomes (in vitro t1/2). In kind it is in vitro ADME. The conditions noted are these: for half-life at 2 µM: read-out: Human microsome t1/2, min; for Human microsome % 60 min: human liver microsomes. Here is the method:
as §1

A further data set has as its target MCT4 (Homo sapiens (Human), UniProt O15427). Put plainly: Assay 3: MCT4-mediated lactate transport in MDA-MB-231 breast cancer cells. In kind it is cell-based. The conditions noted are these: MDA-MB-231 cells; lactate transport. The method, boiled down:
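Read-out is BCECF fluorescence tracking the intracellular pH shift from MCT4-mediated lactate/H+ co-transport. Before measurement, MDA-MB-231 cells take up BCECF-AM for 5 min at 37° C, then are washed into Tyrode's Solution, pH 7.4.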

[4] abbreviates: rat liver microsomes 0.5 mg/mL, 2 μM compound.
[5] abbreviates: human liver microsomes 0.5 mg/mL, 2 μM compound.

Chain of MCT4 (O15427 whole entry, looked up): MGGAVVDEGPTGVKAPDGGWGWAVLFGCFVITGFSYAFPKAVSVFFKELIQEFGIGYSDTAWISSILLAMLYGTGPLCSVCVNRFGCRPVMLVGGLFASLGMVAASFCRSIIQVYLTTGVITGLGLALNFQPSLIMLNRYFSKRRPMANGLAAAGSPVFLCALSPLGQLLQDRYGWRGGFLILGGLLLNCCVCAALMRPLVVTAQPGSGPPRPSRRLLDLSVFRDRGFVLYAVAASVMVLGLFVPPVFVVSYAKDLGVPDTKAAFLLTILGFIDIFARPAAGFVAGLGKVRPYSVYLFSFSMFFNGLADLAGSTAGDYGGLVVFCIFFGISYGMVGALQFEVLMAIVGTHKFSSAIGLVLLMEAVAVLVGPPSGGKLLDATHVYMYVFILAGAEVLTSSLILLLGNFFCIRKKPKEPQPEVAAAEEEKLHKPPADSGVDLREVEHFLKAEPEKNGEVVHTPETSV
Chain of MCT4 (P35613 whole entry partner, looked up): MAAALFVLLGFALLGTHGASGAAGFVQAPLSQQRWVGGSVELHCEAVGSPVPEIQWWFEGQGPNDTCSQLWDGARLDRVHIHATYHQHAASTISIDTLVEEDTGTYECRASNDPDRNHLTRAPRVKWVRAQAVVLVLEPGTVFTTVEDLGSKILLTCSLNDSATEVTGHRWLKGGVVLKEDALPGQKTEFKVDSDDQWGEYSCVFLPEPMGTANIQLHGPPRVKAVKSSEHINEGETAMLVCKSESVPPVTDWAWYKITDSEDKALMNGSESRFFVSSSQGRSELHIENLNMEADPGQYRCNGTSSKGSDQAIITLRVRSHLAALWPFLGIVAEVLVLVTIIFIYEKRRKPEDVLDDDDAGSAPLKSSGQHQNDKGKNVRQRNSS

As to `CC(C)Oc1ncc(-c2cc(COC(C)(C)C(=O)O)nn2Cc2ccccc2Cl)s1` [Example 133, 2-([1-[(2-Chlorophenyl)methyl]-5-[2-(propan-2-yloxy)-1,3-thiazol-5-yl]-1H-pyrazol-3-yl]methoxy)-2-methylpropanoic acid], the half-life at 2 µM in data set [1] (setting [4]) stood at 6.73 h; in data set [2], 5.73 h; in data set [3] (setting [5]), 16.8 h. Further, the “Rat microsome % 60 min” value in data set [1] is 91%. Besides, the values for the IC50 against MCT1 and against MCT4 were over 33000 nM and 13 nM, respectively. The “Mouse microsome % 60 min” value in data set [2] is on record as 90%. The “Human microsome % 60 min” value in data set [3] is 97%.
Turning to `COc1cccc(-c2cc(COC(C)(C)C(=O)O)nn2Cc2ccccc2OC(C)C)c1` [Example 140, 2-([5-(3-Methoxyphenyl)-1-[[2-(propan-2-yloxy)phenyl]methyl]-1H-pyrazol-3-yl)methoxy)-2-methylpropanoic acid], the half-life at 2 µM stood at 0.983 h in data set [1] (setting [4]), 1.07 h in data set [2] and 1.82 h in data set [3] (setting [5]). Moreover, in data set [1], the “Rat microsome % 60 min” value turned out to be 48%. Also, the IC50 is 16000 nM on MCT1 and 8.3 nM on MCT4. In data set [2], the “Mouse microsome % 60 min” value is given as 62%. For the same compound, the “Human microsome % 60 min” value in data set [3] was 67%.
For the compound `CC(C)(C)COc1cccc(-c2cc(COC(C)(C)C(=O)O)nn2-c2ccccc2N2CCC2)c1` [Example 155, 2-([1-[2-(Azetidin-1-yl)phenyl]-5-[3-(2,2-di-methylpropoxy)phenyl]-1H-pyrazol-3-yl]-methoxy)-2-methylpropanoic acid], the figures for the half-life at 2 µM in data set [1] (setting [4]), in data set [2] and in data set [3] (setting [5]) were 1.22 h, 0.633 h and 0.867 h, respectively. Further, the “Rat microsome % 60 min” value in data set [1] is reported as 70%. Further, the IC50 against MCT1 was over 33000 nM; against MCT4, 0.32 nM. Also, in data set [2], the “Mouse microsome % 60 min” value stood at 37%. Further, the “Human microsome % 60 min” value in data set [3] is recorded as 62%.
As for `Cn1ncc2cccc(-n3nc(COC(C)(C)C(=O)O)cc3-c3cccc(OC4CCC4)c3)c21` [Example 166, 2-([5-(3-Cyclobutoxyphenyl)-1-(1-methyl-1H-indazol-7-yl)-1H-pyrazol-3-yl]-methoxy)-2-methylpropanoic acid], the “Rat microsome t1/2, min” value in data set [1] (setting [4]) is given as “∞”. In addition, the “Rat microsome % 60 min” value in data set [1] came out at 102%. Further, the IC50 was 53000 nM against MCT1 and 5.9 nM on MCT4. In addition, the figures for the half-life at 2 µM in data set [2] and in data set [3] (setting [5]) were 3.23 h and 21.1 h, respectively. In addition, in data set [2], the “Mouse microsome % 60 min” value was determined as 82%. In addition, the “Human microsome % 60 min” value in data set [3] came out at 94%.
Regarding `CC(C)(C)COc1cccc(-c2cc(COC(C)(C)C(=O)O)nn2-c2ccccc2Cl)c1` [Example 177, 2-([1-(2-chlorophenyl)-5-[3-(2,2-dimethyl-propoxy)phenyl]-1H-pyrazol-3-yl]methoxy)-2-methylpropanoic acid], the half-life at 2 µM in data set [1] (setting [4]) was 10.6 h; in data set [2], 5.57 h; in data set [3] (setting [5]), 3.07 h. The “Rat microsome % 60 min” value in data set [1] is given as 90%. Also, the values for the IC50 against MCT1 and against MCT4 were 35000 nM and 1.4 nM, respectively. Further, the “Mouse microsome % 60 min” value in data set [2] is recorded as 87%. The “Human microsome % 60 min” value in data set [3] turned out to be 75%.
As for `CC(C)(OCc1cc(-c2cccc(OCC3CCC3)c2)n(-c2ccccc2Cl)n1)C(=O)O` [Example 178, 2-([1-(2-Chlorophenyl)-5-[3-(Cyclobutyl-methoxy)phenyl]-1H-pyrazol-3-yl]-methoxy)-2-methylpropanoic acid], the half-life at 2 µM in data set [1] (setting [4]) was determined as 2.42 h; in data set [2], 2.08 h; in data set [3] (setting [5]), 1.92 h. Further, in data set [1], the “Rat microsome % 60 min” value is 72%. Also, the IC50 at MCT1 is 27000 nM; against MCT4, 2.5 nM. The “Mouse microsome % 60 min” value in data set [2] is listed as 70%. In addition, the “Human microsome % 60 min” value in data set [3] is on record as 66%.
With `CC(C)(OCc1cc(-c2cccc(OC3CC3)c2)n(-c2ccc(F)cc2N2CCC2)n1)C(=O)O` [Example 183, 2-([1-[2-(Azetidin-1-yl)-4-fluorophenyl]-5-(3-cyclopropoxyphenyl)-1H-pyraz.ol-3-yl]-methoxy)-2-methylpropanoic acid], the half-life at 2 µM in data set [1] (setting [4]) was 1.68 h; in data set [2] it was 2.03 h; in data set [3] (setting [5]), 1.65 h. The “Rat microsome % 60 min” value in data set [1] is 71%. The values for the IC50 against MCT1 and against MCT4 were 86000 nM and 1.3 nM, respectively. For the same compound, the “Mouse microsome % 60 min” value in data set [2] turned out to be 73%. The “Human microsome % 60 min” value in data set [3] is given as 66%.
With `Cc1ccccc1-n1nc(COC(C)(C)C(=O)O)cc1-c1cccc(OC2CC2)c1` [Example 188, 2-([5-(3-Cyclopropoxyphenyl)-1-(2-methyl-phenyl)-1H-pyrazol-3-yl]methoxy)-2-methylpropanoic acid], the half-life at 2 µM in data set [1] (setting [4]) worked out at 8.17 h; in data set [2] it was 23.3 h. In addition, the “Rat microsome % 60 min” value in data set [1] was 87%. Also, the IC50 worked out at 15000 nM on MCT1 and 7.5 nM at MCT4. Moreover, the “Mouse microsome % 60 min” value in data set [2] came to 92%. Further, in data set [3] (setting [5]), the “Human microsome t1/2, min” value is reported as “∞”. In data set [3], the “Human microsome % 60 min” value is 101%.
For `CCOc1ccccc1Cn1nc(COC(C)(C)C(=O)O)cc1-c1cc(Cl)cc(OC)c1` [Example 196, 2-([5-(3-Chloro-5-methoxyphenyl)-1-[(2-ethoxyphenyl)methyl]1H-pyrazol-3-yl]-methoxy)-2-methylpropanoic acid], the figures for the half-life at 2 µM in data set [1] (setting [4]), in data set [2] and in data set [3] (setting [5]) were 0.633 h, 0.617 h and 1.47 h, respectively. In addition, the “Rat microsome % 60 min” value in data set [1] was 32%. In addition, the IC50 at MCT1 turned out to be 38000 nM; at MCT4 it was 1.9 nM. Besides, the “Mouse microsome % 60 min” value in data set [2] was 33%. Further, the “Human microsome % 60 min” value in data set [3] came out at 62%.
As to `CCOc1ccccc1Cn1nc(COC(C)(C)C(=O)O)cc1-c1ccc2cnn(CC)c2c1` [Example 198, 2-([1-[(2-Ethoxyphenyl)methyl]-5-(1-ethyl-1H-indazol-6-yl)-1H-pyrazol-3-yl]-methoxy)-2-methylpropanoic acid], the half-life at 2 µM in data set [1] (setting [4]) was found to be 3.42 h; in data set [2], 4.05 h; in data set [3] (setting [5]), 3.45 h. For the same compound, the “Rat microsome % 60 min” value in data set [1] was 82%. The IC50 against MCT1 amounted to 26000 nM; against MCT4, 3.5 nM. Moreover, the “Mouse microsome % 60 min” value in data set [2] was 84%. In addition, the “Human microsome % 60 min” value in data set [3] is on record as 80%.
For the compound `CCOc1ccccc1Cn1nc(COC(C)(C)C(=O)O)cc1-c1cccc(OC2CC2)c1` [Example 201, 2-([5-(3-Cyclopropoxyphenyl)-1-[(2-ethoxy-phenyl)methyl]-1H-pyrazol-3-yl]methoxy)-2-methylpropanoic acid], the half-life at 2 µM turned out to be 0.75 h in data set [1] (setting [4]), 1.38 h in data set [2] and 1.38 h in data set [3] (setting [5]). Also, the “Rat microsome % 60 min” value in data set [1] is on record as 39%. Also, the IC50 came to 15000 nM on MCT1 and 7.2 nM at MCT4. In addition, the “Mouse microsome % 60 min” value in data set [2] turned out to be 58%. Further, the “Human microsome % 60 min” value in data set [3] amounted to 58%.
In the case of `CC(C)(OCc1cc(-c2cccc(OC3CC3)c2)n(Cc2ccccc2N2CCCC2)n1)C(=O)O` [Example 202, 2-([5-(3-Cyclopropoxyphenyl)-1-[[2-(pyrrolidin-1-yl)phenyl]methyl]|-1H-pyrazol-3-yl]methoxy)-2-methylpropanoic acid], the values for the half-life at 2 µM in data set [1] (setting [4]), in data set [2] and in data set [3] (setting [5]) were 0.183 h, 0.633 h and 0.617 h, respectively. Also, the “Rat microsome % 60 min” value in data set [1] amounted to 2%. In addition, the IC50 on MCT1 was 23000 nM; against MCT4 it was 6.2 nM. Further, the “Mouse microsome % 60 min” value in data set [2] came to 32%. In data set [3], the “Human microsome % 60 min” value is 32%.
On to `CC(C)(OCc1cc(-c2cccc(OC3CC3)c2)n(-c2ccccc2N2CCCC2)n1)C(=O)O` [Example 221, 2-([5-(3-Cyclopropoxyphenyl)-1-[2-(pyrrolidin-1-yl)phenyl]-1H-pyrazol-3-yl]-methoxy)-2-methylpropanoic acid], for which the values for the half-life at 2 µM in data set [1] (setting [4]), in data set [2] and in data set [3] (setting [5]) were 0.617 h, 0.633 h and 1.13 h, respectively. Besides, the “Rat microsome % 60 min” value in data set [1] came to 33%. The IC50 on MCT1 was 38000 nM; on MCT4, 3.2 nM. The “Mouse microsome % 60 min” value in data set [2] was found to be 34%. The “Human microsome % 60 min” value in data set [3] is on record as 56%.
